The values that follow come from US7563798B2, “Substituted pyrazolo[1,5-a]pyrimidines as protein kinase inhibitors” (Schering Corporation, priority 2002, dated 2009).

The target in this test is T1, Cyclin E/CDK2 (Homo sapiens, UniProt P24941).
T1 construct: made in house; host or cells: SF9 insect cells (baculovirus co-infection)
Kind of test: Cyclin E/CDK2 in vitro kinase assay (33P-ATP, SPA beads). It counts as biochemical.

The structures appear in SMILES notation.

As usually defined, the IC50 is the concentration that gives 50% inhibition. Compound `Cc1cc(Nc2cc(C3CCCNC3)nc3c(-c4cnn(C)c4)cnn23)sn1` (centres unmarked) returned an IC50 of 46 µM. Under `Cc1cc(Nc2cc(C3CCCNC3)nc3c(-c4cncs4)cnn23)sn1` (centres unmarked) stands 3.3 µM; under `Cc1cc(Nc2cc(C3CNCCS3)nc3c(-c4cnn(C)c4)cnn23)sn1` (centres unmarked), 40 µM.

The compound `Cc1cc(Nc2cc(C3CCCNC3)nc3c(Br)cnn23)sn1` (centres unmarked) registered a concentration for half-maximal inhibition (IC50) of 0.076 µM. Turning to `Cc1cc(Nc2cc(C3CCCNC3)nc3c(-c4coc(C#N)c4)cnn23)sn1` (centres unmarked), the IC50 was determined as 3.6 µM. Under `Cc1cc(Nc2cc(C3CCCNC3)nc3c(-c4coc(C=NO)c4)cnn23)sn1` (centres unmarked) stands 0.05 µM. `Cc1cc(Nc2cc(N3CC[C@@H](N)C3)nc3c(-c4cnn(C)c4)cnn23)sn1` yielded an IC50 of 49 µM. As for `Cc1cc(Nc2cc(N3CC(N)C3)nc3c(-c4cnn(C)c4)cnn23)sn1`, the figure is 6.7 µM.
